Measured values: patent publication US20250076286A1, “GENERATION OF NEURAL ORGANIZER ORGANOIDS AND MIDLINE ASSEMBLOIDS FROM HUMAN PLURIPOTENT STEM CELLS” (The Board of Trustees of the Leland Stanford Junior …, priority 2022, published 2025)

How the values were obtained:
Type in all cases: cell-based, human
[1] = system: hiPSC cell-derived floor plate organoids (hFpO); test: Quantification of FOXA2 positive floor plate cells by immunofluorescence microscopy; details: hFpO induced with 5 μM SAG day 1 to day 6 plus dual SMAD inhibitors, EGF, FGF2, RA; controls without SAG showed no induction
Method: For the generation of 3D floor plate organoids, hiPSC cells were incubated with Accutase® (Innovative Cell Technologies, AT104) at 37° C. for 7 min and dissociated into single cells. To obtain uniformly sized organoids, AggreWell-800 (STEMCELL Technologies, 34815) containing 300 microwells was used. Approximately 3×10^6 single cells were added per AggreWell-800 well in Essential 8 medium supplemented with the ROCK inhibitor Y27632 (10 mM, Selleckchem, S1049), centrifuged at 100 g for 3 min to capture the cells in the microwells, and incubated at 37° C. with 5% CO2. After 24 h, organoids consisting of approximately 10,000 cells were collected from each microwell by pipetting medium in the well up and down with a cut P1000 pipet tip and transferred into ultra-low attachment plastic dishes (Corning, 3262) in 20% knockout serum medium (KOSR) supplemented with two SMAD pathway inhibitors dorsomorphin (2.5 mM, Sigma-Aldrich, P5499) and SB-431542 (10 mM, R&D Systems, 1614) for the first 5 days.
For floor plate induction: SAG, FGF2, and retinoic acid was added to the medium starting on day 1 and CHIR was added to the media beginning on day 2 until day 7. The 20% KOSR medium was changed every day and supplemented with the respective small molecules and growth factors (FIG. 1). […]

[2] = system: hFpO-hNtO midline assembloids; test: hFpO-induced ventralization of hNtO in midline assembloids (immunofluorescence staining)
Method: Cryoprotection and immunofluorescence staining. hFpO, hNtO and midline assembloids were fixed in 4% paraformaldehyde (PFA)/phosphate buffered saline (PBS) for 1-2 hours on a rocker at 4° C. They were then washed in PBS and transferred to 30% sucrose/PBS overnight until the organoids/assembloids sink in the solution. Subsequently, they were rinsed in optimal cutting temperature (OCT) compound (Tissue-Tek OCT Compound 4583, Sakura Finetek) and embedded. For immunofluorescence staining, 20 μm-thick sections were cut using a Leica Cryostat (Leica, CM1850). Cryosections were blocked in 0.3% Triton X-100 (Millipore Sigma, T9284-100ML), 1% BSA diluted in PBS for 1 h at room temperature. The sections were then incubated overnight at 4° C. with primary antibodies diluted in PBS containing 1% BSA, 0.1% Triton X-100. Samples were then rinsed 3× and incubated for 30 minutes in 1% BSA, 0.1% Triton X-100. Cryosections were then incubated with secondary antibodies in block 1 h. The following primary antibodies were used for staining: anti-FOXA2 (rabbit, Abcam), anti-NKX2.2 (mouse, DSHB, sc-517261), anti-NKX6.1 (mouse, DSHB), LMX1A (rabbit, HPA030088, Atlas antibodies), TFAP2A. Alexa Fluor dyes (Life Technologies) were used at 1:1000 dilution, and nuclei were visualized with Hoechst 33258 (Life Technologies, H3549). Cryosections were mounted for microscopy on glass slides using Aquamount (Polysciences, 18606), and imaged on a Zeiss M1 Axioscope or EVOS microscope. Images were processed in Fiji (NIH).
Generation of neural tube organoids or organoids (hNtO) and midline assembloids (hNtO-hFpO). To generate hNtO, organoids were generated using the Aggrewell method previously described. The 20% KOSR medium was changed every day and supplemented with dorsomorphin and SB-431542 for 5 Days. On day 6 in suspension, the organoids were transferred to 20% KOSR supplemented with EGF, FGF2, CHIR and retinoic acid. On day 7, hNtO were dissociated and seeded as previously described in ultra-low attachment 96 well plates. […]

[3] = system: dorsal interneuron axon extension in dhSpOs; test: Axon extension response of dhSpO dorsal interneurons to purified FP-secreted proteins; details: for sensitivity to repulsive axon guidance cue / chemorepulsion: ROBO3 KO neurites
Method: Differentiation of dorsal human spinal organoids (hSpO) and midline assembloids (dhSpO-hFpO-dhSpO) to study crossing of commissural projections. Aggregates of hiPSC cells were generated and collected as previously described in hFpO and hNtO protocols and transferred to poly-HEMA coated 10 cm dishes in Essential 6 medium (Thermo Fisher Scientific, A1516401) supplemented with two SMAD pathway inhibitors-dorsomorphin (2.5 mM, Sigma-Aldrich, P5499) and SB-431542 (10 mM, R&D Systems, 1614). For the first 5 d, Essential 6 medium was changed every day and supplemented with dorsomorphin and SB-431542. To generate hSpO, on day 6 in suspension the organoids were transferred to neural medium containing Neurobasal™-A Medium (Thermo Fisher Scientific, 10888022), B-27™ Supplement, minus vitamin A (Thermo Fisher Scientific, 12587010), GlutaMAX™ Supplement (1:100, Thermo Fisher Scientific, 35050079), Penicillin-Streptomycin (1:100, Thermo Fisher Scientific, 15070063), and supplemented with EGF, CHIR and RA. From day 19, to promote differentiation of the neural progenitors into neurons, the neural medium was supplemented with brain-derived neurotrophic factor (BDNF; 20 ng/ml, PeproTech, 450-02), IGF, AA, and 5′-cyclic monophosphate sodium salt (cAMP; 100 mM, Millipore Sigma, D0627). From this point on medium was changed every other day.
To validate the functionality of floor plate mechanisms that coordinate midline crossing, =isogenic KO hiPS cell lines targeting ROBO3 (an essential gene for midline crossing) with the CRISPR/Cas9 system were generated. Three sgRNAs targeting an early exon of a specific gene were designed and synthesized by Synthego to induce one deletion. Human iPSCs were dissociated with accutase and 0.5 million cells were mixed with 300 pmol sgRNAs and 40 pmol Cas9 protein (Synthego, SpCas9 2NLS Nuclease ([…])). Nucleofection was performed using the P3 Primary Cell 4D-NucleofectorTMX Kit L (Lonza, V4XP-3032), a 4D-nucleofector core unit and the X unit (Lonza) (program CA-137). […]

[4] = cyclopamine added the same day of fusion and in subsequent feeds, hFpO-hNtO assembloid

## CNC1CCC(N(Cc2cccc(-c3ccncc3)c2)C(=O)c2sc3ccccc3c2Cl)CC1 (stereo not shown) [SAG]
[1]
  percent of positive floor plate cells (FOXA2 marker): 90-99%

## CC1=C2C[C@H]3[C@@H](CC=C4C[C@@H](O)CC[C@@]43C)[C@@H]2CC[C@]12O[C@@H]1C[C@H](C)CN[C@H]1[C@H]2C [cyclopamine]
[2]; [4]
  FOXA2 expression in hFpO: abolished
  NKX2.2 induction in hNtO: abolished
[2]; in the presence of cyclopamine, FIG. 5E-G
  hFpO induced ventralization (NKX2.2, FOXA2, NKX6.1): completely abolished

B1: SLIT-2: repulsive axon guidance cue, purified FP-secreted protein (protein, UniProt O94813 31-1529, looked up)
Slit homolog 2 protein: QCSCSGSTVDCHGLALRSVPRNIPRNTERLDLNGNNITRITKTDFAGLRHLRVLQLMENKISTIERGAFQDLKELERLRLNRNHLQLFPELLFLGTAKLYRLDLSENQIQAIPRKAFRGAVDIKNLQLDYNQISCIEDGAFRALRDLEVLTLNNNNITRLSVASFNHMPKLRTFRLHSNNLYCDCHLAWLSDWLRQRPRVGLYTQCMGPSHLRGHNVAEVQKREFVCSGHQSFMAPSCSVLHCPAACTCSNNIVDCRGKGLTEIPTNLPETITEIRLEQNTIKVIPPGAFSPYKKLRRIDLSNNQISELAPDAFQGLRSLNSLVLYGNKITELPKSLFEGLFSLQLLLLNANKINCLRVDAFQDLHNLNLLSLYDNKLQTIAKGTFSPLRAIQTMHLAQNPFICDCHLKWLADYLHTNPIETSGARCTSPRRLANKRIGQIKSKKFRCSAKEQYFIPGTEDYRSKLSGDCFADLACPEKCRCEGTTVDCSNQKLNKIPEHIPQYTAELRLNNNEFTVLEATGIFKKLPQLRKINFSNNKITDIEEGAFEGASGVNEILLTSNRLENVQHKMFKGLESLKTLMLRSNRITCVGNDSFIGLSSVRLLSLYDNQITTVAPGAFDTLHSLSTLNLLANPFNCNCYLAWLGEWLRKKRIVTGNPRCQKPYFLKEIPIQDVAIQDFTCDDGNDDNSCSPLSRCPTECTCLDTVVRCSNKGLKVLPKGIPRDVTELYLDGNQFTLVPKELSNYKHLTLIDLSNNRISTLSNQSFSNMTQLLTLILSYNRLRCIPPRTFDGLKSLRLLSLHGNDISVVPEGAFNDLSALSHLAIGANPLYCDCNMQWLSDWVKSEYKEPGIARCAGPGEMADKLLLTTPSKKFTCQGPVDVNILAKCNPCLSNPCKNDGTCNSDPVDFYRCTCPYGFKGQDCDVPIHACISNPCKHGGTCHLKEGEEDGFWCICADGFEGENCEVNVDDCEDNDCENNSTCVDGINNYTCLCPPEYTGELCEEKLDFCAQDLNPCQHDSKCILTPKGFKCDCTPGYVGEHCDIDFDDCQDNKCKNGAHCTDAVNGYTCICPEGYSGLFCEFSPPMVLPRTSPCDNFDCQNGAQCIVRINEPICQCLPGYQGEKCEKLVSVNFINKESYLQIPSAKVRPQTNITLQIATDEDSGILLYKGDKDHIAVELYRGRVRASYDTGSHPASAIYSVETINDGNFHIVELLALDQSLSLSVDGGNPKIITNLSKQSTLNFDSPLYVGGMPGKSNVASLRQAPGQNGTSFHGCIRNLYINSELQDFQKVPMQTGILPGCEPCHKKVCAHGTCQPSSQAGFTCECQEGWMGPLCDQRTNDPCLGNKCVHGTCLPINAFSYSCKCLEGHGGVLCDEEEDLFNPCQAIKCKHGKCRLSGLGQPYCECSSGYTGDSCDREISCRGERIRDYYQKQQGYAACQTTKKVSRLECRGGCAGGQCCGPLRSKRRKYSFECTDGSSFVDEVEKVVKCGCTRCVS
[3]
  sensitivity to repulsive axon guidance cue / chemorepulsion: increased sensitivity and chemorepulsion
[3]; listed as Slit-2
  sensitivity to repulsive axon guidance cue / chemorepulsion: Increased sensitivity
[3]; wildtype dorsal interneurons
  sensitivity to repulsive axon guidance cue: largely insensitive
